# Test results from patent US20250027085A1, “COMPOSITIONS AND METHODS FOR TREATING ALZHEIMER'S DISEASE UTILIZING A TRANSCRIPTIONAL MASTER REGULATOR OF THE RETROMER COMPLEX” (THE TRUSTEES OF COLUMBIA UNIVERSITY IN THE CITY OF NEW YORK, priority 2022, published 2025).
# Entries after “also recorded” stand apart in the source; their conditions may differ.
# T1: GFP-tagged H. sapiens CREB3L2, full-length form (UniProt Q70SY1)
# T1 sequence: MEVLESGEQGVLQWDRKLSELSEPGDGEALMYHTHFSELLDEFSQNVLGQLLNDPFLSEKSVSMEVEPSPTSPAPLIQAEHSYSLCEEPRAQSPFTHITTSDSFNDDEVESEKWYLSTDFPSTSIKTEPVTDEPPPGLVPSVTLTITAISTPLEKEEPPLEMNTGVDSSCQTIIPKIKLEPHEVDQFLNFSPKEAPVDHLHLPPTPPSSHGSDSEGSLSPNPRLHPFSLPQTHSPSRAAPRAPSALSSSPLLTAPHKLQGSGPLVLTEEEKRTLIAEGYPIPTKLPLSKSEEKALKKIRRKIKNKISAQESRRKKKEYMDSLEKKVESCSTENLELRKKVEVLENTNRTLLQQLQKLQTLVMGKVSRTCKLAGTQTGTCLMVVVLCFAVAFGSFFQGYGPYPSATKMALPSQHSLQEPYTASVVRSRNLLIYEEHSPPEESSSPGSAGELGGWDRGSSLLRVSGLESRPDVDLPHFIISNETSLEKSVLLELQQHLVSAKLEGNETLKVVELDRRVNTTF
# Experiments:
# [1] = target: GFP-tagged CREB3L2-S1P- (full-length form with mutated S1P site) (UniProt Q70SY1)
# [2] = target: T1, GFP-tagged H. sapiens CREB3L2, full-length form
# [3] = test system: CREB3L2-ATF4 heterodimers; assay: Proximity ligation assay (PLA) of axonal CREB3L2-ATF4 heterodimers; assay type: cell-based, rat; conditions: emetine 100 nM to axons, last 60 minutes of 12-hour Aβ42 protocol
# Experimental: Hippocampi were dissected from embryonic day (E) 16-18 rat embryos obtained from pregnant Sprague-Dawley dams (Envigo). All animal procedures were approved by the Institutional Animal Care and Use Committee at Columbia University. Cell dissociation was performed using TripLE Express. Neurons (50,000-60,000 per microfluidic chamber) were plated on 0.1 mg ml^-1 poly-D-lysine (Millipore Sigma) and 2 μg ml^-1 laminin (Bio-Techne) coated substrates and grown in Neurobasal supplemented with 10% fetal bovine serum, 2 mM L-glutamine, 1 mM sodium pyruvate, and antibiotics (50 U ml^-1 penicillin-streptomycin). Tripartite microfluidic chambers were produced with Dow Corning Sylgard 184 Silicone Encapsulant Clear Kit (10:1 mix ratio; Ellsworth Adhesives) cured at […] for at least 4 hours following published protocols (Park et al. 2006; Desai et al. 2009). Chamber design incorporated two sets of 200-μm-long microgroove barriers to exclude crossing of cell bodies and dendrites (Taylor et al. 2005; […] et al. 2009). After 24 hours, medium was changed to Neurobasal containing 1×B27 and 2 mM L-glutamine. Subsequent medium changes (half volumes) were performed at DIV4 and thereafter every 3-5 days. To prevent glial cell proliferation, medium changes included 5-flurodeoxyuridine and uridine (final concentration […]; Millipore Sigma) after DIV4. […]
# neurons = conditions: Rodriguez et al., 2021; cited from earlier work
# [4] = Schafer et al., 2016; cited from earlier work
# rat hippocampal neurons [5] = assay: RNA-seq of Aβ42-challenged neurons with dovitinib co-treatment; assay type: cell-based
# Experimental: Basal expression levels were measured in vehicle-treated cells. DEGs identified in Aβ42 condition are compared against their expression values in neurons co-treated with dovinitib. Individual datapoints show fold-changes over baseline (log2-transformed) of n=2 biological replicates. Aβ42 and dovitinib were applied for 24 hours before RNA collection. […] FGF, fibroblast growth factor.
# Prior to RNA collection, neuronal cultures were washed with ice-cold HBSS (Thermo Fischer) and lysed with TRIzol reagent (#15596026, Thermo Fisher) by scrapping. The reaction was allowed to proceed on ice for 5 minutes, at which point samples were centrifuged at 12,000 g and 4° C. and supernatants transferred to new tubes before a 1:1 (v/v) dilution with molecular biology-grade 100% ethanol (Millipore Sigma). The RNA extraction protocol was continued using the Direct-zol RNA MicroPrep kit (Zymo Research), in accordance to manufacturer's instructions, and included an on-column DNA digestion step with DNase I. RNA was eluted in 30 μl of water. RNA-seq library preparation and sequencing reactions were conducted at GENEWIZ, Inc. (South Plainfield, NJ, USA). RNA sequencing libraries were prepared using the NEBNext Ultra RNA Library Prep Kit for Illumina following manufacturer's instructions (NEB). Briefly, mRNAs were first enriched with oligo(dT) beads. […] The sequencing libraries were validated on an Agilent TapeStation (Agilent Technologies) and quantified using a Qubit 2.0 Fluorometer (Life Technologies) as well as quantitative PCR (KAPA Biosystems). […] RNA-seq sequencing data were processed and analyzed within the Galaxy web platform, using the public server at usegalaxy.org. First, library adapters and low-quality reads were removed using Trimmomatic (version 0.38) with the following settings: initial ILLUMINACLIP step to cut adapters and other Illumina-specific sequences from the reads, seedMismatches=2, palindromeClipThreshold=30, simpleClipThreshold=10, minAdapterLength=8, keepBothReads=True, AVGQUAL >20, SLIDINGWINDOW: windowSize=4 and requiredQuality=20, and MINLEN=50. […]
# rat hippocampal neurons [6] = assay: Neuronal viability (RealTime-Glo MT) after 48-hour Aβ42 stimulation; assay type: cell-based; conditions: lentiviral delivery at DIV1; Aβ42 750 nM 48 hours; relative to wild-type neurons; Aβ42/vehicle ratios
# Experimental: Plots show individual measurements and mean±SEM of n=3 biological replicates. For each background, data are presented as Aβ42/vehicle ratios. ATF4 aZIP: *P-value=0.0167; CREB3L2 aZIP: *P-value=0.0137; unpaired t-tests.
# Specific aZIPs sequences were synthesized by Genewiz. CREB3L2 aZIP: 5′-[…]-3′. (SEQ ID NO: 68) ATF4 aZIP: 5′-[…]-3′. […] Lentiviral particles were delivered at DIV1, 24 hours post-dissection. Neuronal cultures were allowed to mature until DIV15 and treated with Aβ42 at 750 nM for 48 hours. Cell viability was assayed using RealTime-Glo MT Cell Viability Assay (Promega) following manufacturer's guidelines; reaction was allowed to proceed for 1 hour before taking luminescence readings (SpectraMax iD5, Molecular Devices). Also see FIGS. 34A-34D.
molecule,measurement,setting,value
site 2 protease (S2P),"CREB3L2 proteolytic cleavage (western blot, coexpression in HEK293)",[1],Preventing S1P processing by eliminating its cleavage site does not impede S2P-mediated processing
same,"CREB3L2 proteolytic cleavage (western blot, coexpression in HEK293)",[2],"Coexpression of S2P, but not S1P, together with full-length GFP-CREB3L2 in HEK293 cells is sufficient to promote the activation of CREB3L2"
CC[C@H]1CN2CCc3cc(OC)c(OC)cc3[C@@H]2C[C@@H]1C[C@H]1NCCc2cc(OC)c(OC)cc21 [emetine],Aβ42-induced upregulation of axonal CREB3L2-ATF4 heterodimers (PLA),[3],completely prevented; also recorded: limited their association in axons to control levels
CN1CCN(c2ccc3nc(-c4c(N)c5c(F)cccc5[nH]c4=O)[nH]c3c2)CC1 [dovitinib],toxicity to neurons,neurons,non-toxic
same,crossing of the blood-brain barrier,[4],can cross
same,number of genes surpassing 0.25 differences in head-to-head comparisons,rat hippocampal neurons [5]; 24-hour Aβ42 + dovitinib vs Aβ42,30
same,number of Aβ42 DEGs (of 203) showing corrective shifts 0.10 with dovitinib co-treatment,"rat hippocampal neurons [5]; 24-hour Aβ42 + dovitinib, log fold-change, n=2",131
same,Vgf log fold-change [Aβ42+dovitinib],"rat hippocampal neurons [5]; 24 hours, Aβ42 alone log fold-change 0.57, over vehicle baseline",0.07
site 1 protease (S1P),"CREB3L2 proteolytic cleavage (western blot, coexpression in HEK293)",[2],"Coexpression of S2P, but not S1P, together with full-length GFP-CREB3L2 in HEK293 cells is sufficient to promote the activation of CREB3L2"
"ATF4 aZIP: dominant-negative acidic-ZIP peptide targeting ATF4, encoded by nucleotide SEQ ID NO: 69, delivered by lentivirus (protein) peptide: MDYKDDDDKHMASMTGGQQMGRDPDLEQRAEELARENEELEKEAEELEQELAELTGECKELEKKNEALKEKADSLAKEIQYLKDLIEEVRKARGKKRVP",cell viability in neurons exposed to Aβ42,rat hippocampal neurons [6],significantly improved
"CREB3L2 aZIP: dominant-negative acidic-ZIP peptide targeting CREB3L2, encoded by nucleotide SEQ ID NO: 68, delivered by lentivirus (protein) peptide: MDYKDDDDKHMASMTGGQQMGRDPDLEQRAEELARENEELEKEAEELEQELAELRKKVEVLENTNRTLLQQLQKLQTLVMGKVSRTCKLAGTQTGTCLMVVVL",cell viability in neurons exposed to Aβ42,rat hippocampal neurons [6],significantly improved
